The values that follow come from US12338253B2, “Nitrogen-containing polycyclic fused ring compound, pharmaceutical composition thereof, preparation method therefor and use thereof” (APPLIED PHARMACEUTICAL SCIENCE, INC., priority 2019, dated 2025).

A word on the IC50: it is the concentration that gives 50% inhibition. Lower therefore signals inhibition by little substance.

One assay relates to TT Cell. Nature of the assay: TT cell activity test (CelltiterGlo, 72 h). It counts as cell-based, human. The following applies: for IC50: Homo sapiens, TT cell line, 72 h, CTG; for inhibitory activity on TT cells compared with cabozantinib: comparison in words. As to the method: 2.3 Data Processing % Inhibition (inhibition rate)=100*(HC−test compound well reading)/(HC−LC) • High control (HC, reading control without inhibition): 0.5% DMSO • Low control (LC, control with compound inhibition): 1 μM CEP-32496
The IC50 values were calculated using GraphPad Prism 6 software. Y=Bottom+(Top−Bottom)/(1+10^((Log IC50−X)*HillSlope)); • X: log of cpd concentration; • Y: % inhibition; • Top and Bottom: plateaus in same units as Y; • Log IC50: same log units as X; and • HillSlope: slope factor The Cell Results are Shown in Table 5: […]
For orientation: ATP-based viability assays read luminescence as a measure of living cells.

The target in another assay is RET G810R (Homo sapiens (Human), UniProt P07949, G810R). Nature of the assay: HTRF kinase activity test, RET G810R. The format is biochemical. The following applies: for IC50: HTRF KinEASE-TK; for inhibitory activity on RET G810R compared with cabozantinib and selpercatinib (LOXO-292): comparison in words.
RET G810R, sequence (P07949 29-1114 G810R): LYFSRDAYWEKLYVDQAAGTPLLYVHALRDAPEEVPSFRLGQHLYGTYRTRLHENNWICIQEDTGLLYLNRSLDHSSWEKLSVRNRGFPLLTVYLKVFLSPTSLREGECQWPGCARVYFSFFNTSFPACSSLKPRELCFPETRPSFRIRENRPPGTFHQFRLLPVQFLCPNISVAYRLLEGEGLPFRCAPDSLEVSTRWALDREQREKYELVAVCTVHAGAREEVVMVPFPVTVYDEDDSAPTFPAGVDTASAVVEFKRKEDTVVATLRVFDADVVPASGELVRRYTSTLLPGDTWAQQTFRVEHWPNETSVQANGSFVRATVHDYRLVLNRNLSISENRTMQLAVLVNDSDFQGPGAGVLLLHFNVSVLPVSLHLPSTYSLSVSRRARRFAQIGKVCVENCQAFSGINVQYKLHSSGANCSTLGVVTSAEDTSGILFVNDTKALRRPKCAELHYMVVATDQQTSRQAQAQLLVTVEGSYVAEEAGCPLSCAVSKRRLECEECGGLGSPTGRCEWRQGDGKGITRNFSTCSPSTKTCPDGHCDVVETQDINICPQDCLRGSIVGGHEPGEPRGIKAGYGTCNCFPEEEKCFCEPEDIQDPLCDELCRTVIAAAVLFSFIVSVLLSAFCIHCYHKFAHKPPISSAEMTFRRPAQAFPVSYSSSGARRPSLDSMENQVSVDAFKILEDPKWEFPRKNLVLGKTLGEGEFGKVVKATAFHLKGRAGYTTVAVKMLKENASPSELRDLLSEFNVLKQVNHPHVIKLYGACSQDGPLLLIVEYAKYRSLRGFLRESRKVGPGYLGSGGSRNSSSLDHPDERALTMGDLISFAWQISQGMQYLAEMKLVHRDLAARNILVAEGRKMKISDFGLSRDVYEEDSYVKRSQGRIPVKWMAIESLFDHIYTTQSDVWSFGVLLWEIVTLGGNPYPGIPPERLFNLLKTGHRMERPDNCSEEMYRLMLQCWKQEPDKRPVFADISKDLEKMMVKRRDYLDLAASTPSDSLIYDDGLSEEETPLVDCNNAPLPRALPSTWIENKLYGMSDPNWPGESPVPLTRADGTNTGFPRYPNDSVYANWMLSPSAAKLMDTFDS

`CO[C@@H](C(=O)N1CCN(c2ccc(-c3cc(OCCF)cn4nc5[nH]ncc5c34)cn2)CC1)c1ccccc1` [Compound 21, (R)-1-(4-(5-(6-(2-fluoroethoxy)-1H-pyrazolo[3′,4′:3,4]pyrazolo[1,5-a]pyridin-4-yl)pyridin-2-yl)piperazin-1-yl)-2-methoxy-2-phenylethan-1-one]: in the assay on TT Cell, the IC50 was determined as 15.8 nM and the “inhibitory activity on TT cells compared with cabozantinib” value was “significantly better than that of cabozantinib”. At RET G810R, the midpoint of inhibition, the IC50, lay at 0.6 nM; the “inhibitory activity on RET G810R compared with cabozantinib and selpercatinib (LOXO-292)” value is “significantly better than that of cabozantinib and selpercatinib (LOXO-292)”.

Turning to `COc1ccc(C(=O)N2CCN(c3ccc(-c4cc(OCCF)cn5nc6[nH]ncc6c45)cn3)CC2)cn1` [Compound 22, (4-(5-(6-(2-fluoroethoxy)-1H-pyrazolo[3′,4′:3,4]pyrazolo[1,5-a]pyridin-4-yl)pyridin-2-yl)piperazin-1-yl)(6-methoxypyridin-3-yl)methanone], in the assay on TT Cell, the IC50 amounted to 39.5 nM and the “inhibitory activity on TT cells compared with cabozantinib” value is on record as “significantly better than that of cabozantinib”. Besides, on RET G810R, inhibition was half-maximal at 1.7 nM (IC50); the “inhibitory activity on RET G810R compared with cabozantinib and selpercatinib (LOXO-292)” value is “significantly better than that of cabozantinib and selpercatinib (LOXO-292)”.

`COc1cc(-c2cnc(N3CC4CC(C3)N4Cc3ccc(OC)nc3)cn2)c2c3cn[nH]c3nn2c1` [Compound 24, 6-methoxy-4-(5-(6-((6-methoxypyridin-3-yl)methyl)-3,6-diazabicyclo[3.3.1]heptan-3-yl)pyrazin-2-yl)-1H-pyrazolo[3′,4′:3,4]pyrazolo[1,5-a]pyridine]: in the assay with TT Cell, half-maximal inhibition (IC50) required 22.4 nM and the “inhibitory activity on TT cells compared with cabozantinib” value is listed as “significantly better than that of cabozantinib”. On RET G810R, the 50% inhibitory concentration (IC50) came to 2.3 nM; the “inhibitory activity on RET G810R compared with cabozantinib and selpercatinib (LOXO-292)” value was “significantly better than that of cabozantinib and selpercatinib (LOXO-292)”.

On to `COc1ccc(CN2C3CC2CN(c2cnc(-c4cc(OCC(F)F)cn5nc6[nH]ncc6c45)cn2)C3)cn1` [Compound 25, 6-(2,2-difluoroethoxy)-4-(5-(6-((6-methoxypyridin-3-yl)methyl)-3,6-diazabicyclo[3.3.1]heptan-3-yl)pyrazin-2-yl)-1H-pyrazolo[3′,4′:3,4]pyrazolo[1,5-a]pyridine], for which, in the assay with TT Cell, the IC50 was found to be 23.4 nM and the “inhibitory activity on TT cells compared with cabozantinib” value is given as “significantly better than that of cabozantinib”. On RET G810R, the IC50 turned out to be 4.3 nM; the “inhibitory activity on RET G810R compared with cabozantinib and selpercatinib (LOXO-292)” value is “significantly better than that of cabozantinib and selpercatinib (LOXO-292)”.

For the molecule `COc1ccc(CN2C3CC2CN(c2ccc(-c4cc(OCC#N)cn5nc6[nH]ncc6c45)cn2)C3)cn1` [Compound 26, 2-((4-(6-(6-((6-methoxypyridin-3-yl)methyl)-3,6-diazabicyclo[3.3.1]heptan-3-yl)pyridin-3-yl)-1H-pyrazolo[3′,4′:3,4]pyrazolo[1,5-a]pyridin-6-yl)oxy)acetonitrile], in the assay on TT Cell, the midpoint of inhibition, the IC50, lay at 22.7 nM and the “inhibitory activity on TT cells compared with cabozantinib” value was “significantly better than that of cabozantinib”. Also, at RET G810R, the IC50 was found to be 2.1 nM; the “inhibitory activity on RET G810R compared with cabozantinib and selpercatinib (LOXO-292)” value was “significantly better than that of cabozantinib and selpercatinib (LOXO-292)”.

Turning to `COc1ccc(CN2C3CC2CN(c2ccc(-c4cc(OCC(F)(F)F)cn5nc6[nH]ncc6c45)cn2)C3)cn1` [Compound 30, 4-(6-(6-((6-methoxypyridin-3-yl)methyl)-3,6-diazabicyclo[3.3.1]heptan-3-yl)pyridin-3-yl)-6-(2,2,2-trifluoroethoxy)-1H-pyrazolo[3′,4′:3,4]pyrazolo[1,5-a]pyridine], in the assay on TT Cell, the IC50 was 48.6 nM and the “inhibitory activity on TT cells compared with cabozantinib” value is recorded as “significantly better than that of cabozantinib”. On RET G810R, the concentration for half-maximal inhibition (IC50) amounted to 5.9 nM; the “inhibitory activity on RET G810R compared with cabozantinib and selpercatinib (LOXO-292)” value was “significantly better than that of cabozantinib and selpercatinib (LOXO-292)”.
